This is an account of results in patent US11986471B2, “Compounds and methods of use” (Tango Therapeutics, Inc., priority 2018, dated 2024).

Molecules are shown by their SMILES.

What is called IC50 is the concentration that inhibits the measured activity by half.

Experiment [1] addresses T1, PRMT5 (Homo sapiens, UniProt O14744).
T1 construct: purchased Viva (custom protein)
The experiment in a line: PRMT5 IC50 assay with no cofactor. It counts as biochemical. The essentials:
(§1)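 For the SAM-containing format, dividing IC50 by 1.5 yields Ki; for the MTA-containing format the divisor is 13.5. A third format without cofactor gives IC50 alone.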

Another experiment deals with HAP1 MTAP-deleted. The experiment in a line: SDMA in-cell western assay, HAP1 MTAP-deleted cell line. It counts as cell-based. Particulars: for IC50: Homo sapiens, HAP1 MTAP-deleted cell line; for MTAP Intact/Deleted Ratio: IC50 ratio HAP1 MTAP-intact / HAP1 MTAP-deleted. The method, boiled down:
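Symmetric dimethylarginine (SDMA) levels were measured by in-cell western in MTAP-null HAP1 cells, one half of an MTAP-isogenic pair whose partner line expresses endogenous MTAP. Compound potency is reported as IC50.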

Another experiment has as its system HAP1 MTAP-intact. The experiment in a line: SDMA in-cell western assay, HAP1 MTAP-intact cell line. As to conditions: Homo sapiens. In kind it is cell-based. The method, boiled down: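 Symmetric dimethylarginine (SDMA) levels were measured by in-cell western in an isogenic HAP1 pair, one expressing endogenous MTAP and one MTAP-null, and IC50 values were derived for each line. Compounds whose IC50 ratio between the lines is 3-fold or more are classed as MTAP-selective.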

Experiment [2] has as its target T1, PRMT5. Kind of experiment: PRMT5 IC50 assay in the presence of MTA as cofactor. In kind it is biochemical. As to conditions: for IC50: PRMT5, MTA as cofactor. The essentials: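 Ki conversion: SAM arm, Ki=IC50/1.5; MTA arm, Ki=IC50/13.5. No-cofactor arm reported as IC50 only. Selectivity expressed as Ki(SAM)/Ki(MTA).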
Experiment [3] has as its target T1, PRMT5. The experiment in a line: PRMT5 IC50 assay in the presence of SAM as cofactor. It counts as biochemical. The essentials:
as §1

[4] abbreviates: ratio between the Ki in the presence of SAM and the Ki in the presence of MTA.
Where [5] appears, read: ratio between Ki in the presence of SAM and Ki in the presence of MTA.

T1 sequence (O14744 whole entry): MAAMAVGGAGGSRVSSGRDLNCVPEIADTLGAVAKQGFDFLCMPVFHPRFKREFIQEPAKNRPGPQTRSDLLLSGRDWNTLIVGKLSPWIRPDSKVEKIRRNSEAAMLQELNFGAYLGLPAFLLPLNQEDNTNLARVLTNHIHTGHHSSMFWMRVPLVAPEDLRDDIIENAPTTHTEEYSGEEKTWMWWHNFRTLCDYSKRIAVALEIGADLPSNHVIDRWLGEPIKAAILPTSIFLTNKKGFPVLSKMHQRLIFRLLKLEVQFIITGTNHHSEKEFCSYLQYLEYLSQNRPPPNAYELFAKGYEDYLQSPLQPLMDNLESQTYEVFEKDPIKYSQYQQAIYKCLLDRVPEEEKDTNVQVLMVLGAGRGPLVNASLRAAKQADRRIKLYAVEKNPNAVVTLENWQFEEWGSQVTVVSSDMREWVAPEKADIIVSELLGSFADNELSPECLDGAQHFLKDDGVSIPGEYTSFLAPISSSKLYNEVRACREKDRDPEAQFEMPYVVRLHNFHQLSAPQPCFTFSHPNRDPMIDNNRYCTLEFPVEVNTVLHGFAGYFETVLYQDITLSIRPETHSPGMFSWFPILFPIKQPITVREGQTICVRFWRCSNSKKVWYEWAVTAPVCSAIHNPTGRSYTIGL
T1 sequence (Q9BQA1 whole entry partner): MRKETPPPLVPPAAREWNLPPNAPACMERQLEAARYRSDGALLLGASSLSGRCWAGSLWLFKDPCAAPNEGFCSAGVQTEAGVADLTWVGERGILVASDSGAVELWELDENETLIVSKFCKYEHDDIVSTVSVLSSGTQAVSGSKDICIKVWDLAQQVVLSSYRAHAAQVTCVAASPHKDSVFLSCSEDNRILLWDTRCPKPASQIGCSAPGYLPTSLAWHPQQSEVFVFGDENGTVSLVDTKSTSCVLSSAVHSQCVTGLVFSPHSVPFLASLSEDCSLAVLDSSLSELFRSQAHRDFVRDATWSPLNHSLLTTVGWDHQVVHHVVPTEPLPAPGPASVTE

With `Cc1ncoc1COc1ccc2c(c1C)CCN(C[C@@H](O)CNC(=O)c1cc(NC3CCC3)nc(N3CCN(C(=O)C(C)C)CC3)c1)C2` [Compound 459, 2-(cyclobutylamino)-N-[(2S)-2-hydroxy-3-{5-methyl-6-[(4-methyl-1,3-oxazol-5-yl)methoxy]-1,2,3,4-tetrahydroisoquinolin-2-yl}propyl]-6-[4-(2-methylpropanoyl)piperazin-1-yl]pyridine-4-carboxamide], the IC50 at PRMT5 [1] is 500 to 5000 nM; with HAP1 MTAP-deleted it was < 1000 nM; with HAP1 MTAP-intact, 1000 to 10000 nM; at PRMT5 [2], 50 to 500 nM; on PRMT5 [3], 50 to 500 nM. For the same molecule, in the experiment with HAP1 MTAP-deleted, the “MTAP Intact/Deleted Ratio” value was “A* (an IC50 ratio greater than or equal to 10 fold between the IC50 in the HAP1 MTAP-intact cell line and the HAP1 MTAP-deleted cell line)”. Further, at PRMT5 [2] (setting [4]), the “SAM/MTA Ratio” value is “A (a Ki ratio greater than or equal to 10 fold between the Ki in the presence of SAM and the Ki in the presence of MTA)”.
For the molecule `CC(=O)N1CC(Nc2cc(C(=O)NC[C@H](O)CN3CCc4c(ccc(OCc5cnco5)c4C)C3)ccn2)C1` [Compound 512, (S)-2-((1-acetylazetidin-3-yl)amino)-N-(2-hydroxy-3-(5-methyl-6-(oxazol-5-ylmethoxy)-3,4-dihydroisoquinolin-2(1H)-yl)propyl)isonicotinamide], the concentration for half-maximal inhibition (IC50) at PRMT5 [1] was ≥ 5000 nM; in the experiment with HAP1 MTAP-deleted, ≥ 10000 nM; in the experiment on HAP1 MTAP-intact, ≥ 10000 nM; on PRMT5 [2] it was 50 to 500 nM; at PRMT5 [3] it was 50 to 500 nM. Also, in the experiment on HAP1 MTAP-deleted, the “MTAP Intact/Deleted Ratio” value was “C* (an IC50 ratio of less than 3 fold between the IC50 in the HAP1 MTAP-intact cell line and the HAP1 MTAP-deleted cell line)”. For the same molecule, on PRMT5 [2] (setting [4]), the “SAM/MTA Ratio” value was “A (a Ki ratio greater than or equal to 10 fold between the Ki in the presence of SAM and the Ki in the presence of MTA)”.
Turning to `Cc1c(OCc2ccnn2C)ccc2c1CCN(C[C@@H](O)CNC(=O)c1ccnc(NC3CCCCC3)c1)C2` [Compound 278, (S)-2-(cyclohexylamino)-N-(2-hydroxy-3-(5-methyl-6-((1-methyl-1H-pyrazol-5-yl)methoxy)-3N-dihydroisoquinolin-2(1H)-yl)propyl)isonicotinamide], the half-inhibitory concentration (IC50) on PRMT5 [1] (read-out: No Co-factor IC50) was ≥ 5000 nM; with HAP1 MTAP-deleted, ≥ 10000 nM; with HAP1 MTAP-intact, ≥ 10000 nM; at PRMT5 [2], 500 to 5000 nM; at PRMT5 [3] it was 500 to 5000 nM. The “MTAP Intact/Deleted Ratio” value in the experiment with HAP1 MTAP-deleted is “C* (an IC50 ratio of less than 3 fold between the IC50 in the HAP1 MTAP-intact cell line and the HAP1 MTAP-deleted cell line)”. Besides, the “SAM/MTA Ratio” value on PRMT5 [2] (setting [5]) is “A (a Ki ratio greater than or equal to 10 fold between the Ki in the presence of SAM and the Ki in the presence of MTA)”.
Consider `COCCN(C)c1cc(C(=O)NC[C@H](O)CN2CCc3cc(OCc4cnco4)ccc3C2)cc(NC2CCC2)n1` [Compound 369, (S)-2-(cyclobutylamino)-N-(2-hydroxy-3-(6-(oxazol-5-ylmethoxy)-3,4-dihydroisoquinolin-2(1H)-yl)propyl)-6-((2-methoxyethyl)(methyl)amino)isonicotinamide], for which the half-inhibitory concentration (IC50) at PRMT5 [1] (read-out: No Co-factor IC50) is 500 to 5000 nM; with HAP1 MTAP-deleted, ≥ 10000 nM; in the experiment on HAP1 MTAP-intact it was 1000 to 10000 nM; at PRMT5 [2], 50 to 500 nM; at PRMT5 [3] it was 500 to 5000 nM. The “MTAP Intact/Deleted Ratio” value with HAP1 MTAP-deleted is “C* (an IC50 ratio of less than 3 fold between the IC50 in the HAP1 MTAP-intact cell line and the HAP1 MTAP-deleted cell line)”. Further, the “SAM/MTA Ratio” value at PRMT5 [2] (setting [5]) was “A (a Ki ratio greater than or equal to 10 fold between the Ki in the presence of SAM and the Ki in the presence of MTA)”.
Take `Cc1c(OCc2cnco2)ccc2c1CCN(C[C@@H](O)CNC(=O)c1ccnc(NC3CCC3)c1)C2` [Compound 179, 2-(cyclobutylamino)-N-[(2S)-2-hydroxy-3-[5-methyl-6-(oxazol-5-ylmethoxy)-3,4-dihydro-1H-isoquinolin-2-yl]propyl]pyridine-4-carboxamide]: the IC50 was ≥ 5000 nM at PRMT5 [1] (read-out: No Co-factor IC50); 1000 to 10000 nM in the experiment on HAP1 MTAP-deleted; ≥ 10000 nM in the experiment on HAP1 MTAP-intact; 50 to 500 nM on PRMT5 [2]; 50 to 500 nM on PRMT5 [3]. Besides, the “MTAP Intact/Deleted Ratio” value with HAP1 MTAP-deleted was “C* (an IC50 ratio of less than 3 fold between the IC50 in the HAP1 MTAP-intact cell line and the HAP1 MTAP-deleted cell line)”. Besides, the “SAM/MTA Ratio” value on PRMT5 [2] (setting [5]) was “A (a Ki ratio greater than or equal to 10 fold between the Ki in the presence of SAM and the Ki in the presence of MTA)”.
With `Cc1ncoc1COc1ccc2c(c1)CCN(C[C@@H](O)CNC(=O)c1cc(NC3CCCCC3)ncn1)C2` [Compound 388, 6-(cyclohexylamino)-N-[(2S)-2-hydroxy-3-{6-[(4-methyl-1,3-oxazol-5-yl)methoxy]-1,2,3,4-tetrahydroisoquinolin-2-yl}propyl]pyrimidine-4-carboxamide], the IC50 was ≥ 5000 nM at PRMT5 [1] (read-out: No Co-factor IC50); < 1000 nM in the experiment on HAP1 MTAP-deleted; < 1000 nM in the experiment with HAP1 MTAP-intact; 50 to 500 nM on PRMT5 [2]; 50 to 500 nM at PRMT5 [3]. Moreover, in the experiment with HAP1 MTAP-deleted, the “MTAP Intact/Deleted Ratio” value is “B* (an IC50 ratio greater than or equal to 3 fold but lower than 10 fold between the IC50 in the HAP1 MTAP-intact cell line and the HAP1 MTAP-deleted cell line)”. Also, on PRMT5 [2] (setting [5]), the “SAM/MTA Ratio” value is “A (a Ki ratio greater than or equal to 10 fold between the Ki in the presence of SAM and the Ki in the presence of MTA)”.
Consider `CC(C)(C)N1CCN(c2cc(C(=O)NC[C@H](O)CN3CCc4cc(OCc5cnco5)ccc4C3)cc(NC3CCC3)n2)CC1` [Compound 306, (S)-2-(4-(tert-butyl)piperazin-1-yl)-6-(cyclobutylamino)-N-(2-hydroxy-3-(6-(oxazol-5-ylmethoxy)-3N-dihydroisoquinolin-2(1H)-yl)propyl)isonicotinamide], for which the concentration for half-maximal inhibition (IC50) on PRMT5 [1] (read-out: No Co-factor IC50) was 500 to 5000 nM; with HAP1 MTAP-deleted it was ≥ 10000 nM; in the experiment with HAP1 MTAP-intact, 1000 to 10000 nM; on PRMT5 [2] it was 50 to 500 nM; at PRMT5 [3], 50 to 500 nM. Besides, the “MTAP Intact/Deleted Ratio” value with HAP1 MTAP-deleted was “C* (an IC50 ratio of less than 3 fold between the IC50 in the HAP1 MTAP-intact cell line and the HAP1 MTAP-deleted cell line)”. Also, the “SAM/MTA Ratio” value on PRMT5 [2] (setting [5]) is “A (a Ki ratio greater than or equal to 10 fold between the Ki in the presence of SAM and the Ki in the presence of MTA)”.
For `Cc1ncoc1COc1ccc2c(c1)CCN(C[C@@H](O)CNC(=O)c1cc(NC3CCC3)nc(N3CCN(C(C)(C)C)CC3)c1)C2` [Compound 403, 2-(4-tert-butylpiperazin-1-yl)-6-(cyclobutylamino)-N-[(2S)-2-hydroxy-3-{6-[(4-methyl-1,3-oxazol-5-yl)methoxy]-1,2,3,4-tetrahydroisoquinolin-2-yl}propyl]pyridine-4-carboxamide], the IC50 was 500 to 5000 nM on PRMT5 [1] (read-out: No Co-factor IC50); ≥ 10000 nM with HAP1 MTAP-deleted; < 1000 nM with HAP1 MTAP-intact; 50 to 500 nM on PRMT5 [2]; 50 to 500 nM at PRMT5 [3]. Further, in the experiment on HAP1 MTAP-deleted, the “MTAP Intact/Deleted Ratio” value is “C* (an IC50 ratio of less than 3 fold between the IC50 in the HAP1 MTAP-intact cell line and the HAP1 MTAP-deleted cell line)”. For the same molecule, the “SAM/MTA Ratio” value on PRMT5 [2] (setting [5]) was “A (a Ki ratio greater than or equal to 10 fold between the Ki in the presence of SAM and the Ki in the presence of MTA)”.
For `Cc1c(OCc2cnco2)ccc2c1CCN(C[C@@H](O)CNC(=O)c1cc(NC3CCC3)ncn1)C2` [Compound 376, 6-(cyclobutylamino)-N-[(2S)-2-hydroxy-3-{5-methyl-6-[(1,3-oxazol-5-yl)methoxy]-1,2,3,4-tetrahydroisoquinolin-2-yl}propyl]pyrimidine-4-carboxamide], the 50% inhibitory concentration (IC50) at PRMT5 [1] (read-out: No Co-factor IC50) is ≥ 5000 nM; with HAP1 MTAP-deleted, ≥ 10000 nM; in the experiment with HAP1 MTAP-intact it was ≥ 10000 nM; on PRMT5 [2] it was 500 to 5000 nM; at PRMT5 [3], 500 to 5000 nM. For the same molecule, the “MTAP Intact/Deleted Ratio” value in the experiment with HAP1 MTAP-deleted is “C* (an IC50 ratio of less than 3 fold between the IC50 in the HAP1 MTAP-intact cell line and the HAP1 MTAP-deleted cell line)”. Besides, the “SAM/MTA Ratio” value on PRMT5 [2] (setting [5]) was “A (a Ki ratio greater than or equal to 10 fold between the Ki in the presence of SAM and the Ki in the presence of MTA)”.
With `Cc1ncoc1COc1ccc2c(c1)CCN(C[C@@H](O)CNC(=O)c1cc(NC3CCC3)nc(N3C4CCC3COC4)c1)C2` [Compound 598], the half-maximal inhibitory concentration (IC50) was 500 to 5000 nM at PRMT5 [1]; < 1000 nM with HAP1 MTAP-deleted; < 1000 nM in the experiment on HAP1 MTAP-intact; 50 to 500 nM on PRMT5 [2]; 50 to 500 nM at PRMT5 [3]. Moreover, in the experiment on HAP1 MTAP-deleted, the “MTAP Intact/Deleted Ratio” value was “C* (an IC50 ratio of less than 3 fold between the IC50 in the HAP1 MTAP-intact cell line and the HAP1 MTAP-deleted cell line)”. Besides, the “SAM/MTA Ratio” value on PRMT5 [2] (setting [4]) is “A (a Ki ratio greater than or equal to 10 fold between the Ki in the presence of SAM and the Ki in the presence of MTA)”.
`CC(=O)N1CC(Nc2cc(C(=O)NC[C@H](O)CN3CCc4c(ccc(OCc5ocnc5C)c4C)C3)nc(C(C)(C)C)n2)C1` [Compound 569, (S)-6-((1-acetylazetidin-3-yl)amino)-2-(tert-butyl)-N-(2-hydroxy-3-(5-methyl-6-((4-methyloxazol-5-yl)methoxy)-3,4-dihydroisoquinolin-2(1H)-yl)propyl)pyrimidine-4-carboxamide]: the half-inhibitory concentration (IC50) on PRMT5 [1] is ≥ 5000 nM; in the experiment on HAP1 MTAP-deleted it was 1000 to 10000 nM; in the experiment on HAP1 MTAP-intact, ≥ 10000 nM; at PRMT5 [2], 50 to 500 nM; at PRMT5 [3] it was 50 to 500 nM. Further, the “MTAP Intact/Deleted Ratio” value in the experiment with HAP1 MTAP-deleted is “B* (an IC50 ratio greater than or equal to 3 fold but lower than 10 fold between the IC50 in the HAP1 MTAP-intact cell line and the HAP1 MTAP-deleted cell line)”. The “SAM/MTA Ratio” value on PRMT5 [2] (setting [4]) was “A (a Ki ratio greater than or equal to 10 fold between the Ki in the presence of SAM and the Ki in the presence of MTA)”.
